Measured values reported in patent US20250367166A1, “NEXT GENERATION DIPROVOCIMS THAT ACTIVATE THE INNATE AND ADAPTIVE IMMUNE RESPONSE” (The Scripps Research Institute, priority 2022, published 2025).
Read-outs that look alike come from different tables or passages of the source.

Assays:
TLR1/TLR2 [1] = target: TLR1/TLR2 (Mus musculus, UniProt Q9EPQ1+Q9QUN7); assay: TNF-α release from thioglycolate-elicited mouse peritoneal macrophages (ELISA); details: for Emax: 4 h, read-out: Efficacy (magnitude) of response versus diprovocim-1 (100%), mouse macrophages; for EC50: read-out: EC50 (nM) (mouse): EC50 TNF-α release from mouse macrophages
TLR1/TLR2 (Mus musculus, UniProt Q9EPQ1+Q9QUN7), sequence (Q9EPQ1 26-795): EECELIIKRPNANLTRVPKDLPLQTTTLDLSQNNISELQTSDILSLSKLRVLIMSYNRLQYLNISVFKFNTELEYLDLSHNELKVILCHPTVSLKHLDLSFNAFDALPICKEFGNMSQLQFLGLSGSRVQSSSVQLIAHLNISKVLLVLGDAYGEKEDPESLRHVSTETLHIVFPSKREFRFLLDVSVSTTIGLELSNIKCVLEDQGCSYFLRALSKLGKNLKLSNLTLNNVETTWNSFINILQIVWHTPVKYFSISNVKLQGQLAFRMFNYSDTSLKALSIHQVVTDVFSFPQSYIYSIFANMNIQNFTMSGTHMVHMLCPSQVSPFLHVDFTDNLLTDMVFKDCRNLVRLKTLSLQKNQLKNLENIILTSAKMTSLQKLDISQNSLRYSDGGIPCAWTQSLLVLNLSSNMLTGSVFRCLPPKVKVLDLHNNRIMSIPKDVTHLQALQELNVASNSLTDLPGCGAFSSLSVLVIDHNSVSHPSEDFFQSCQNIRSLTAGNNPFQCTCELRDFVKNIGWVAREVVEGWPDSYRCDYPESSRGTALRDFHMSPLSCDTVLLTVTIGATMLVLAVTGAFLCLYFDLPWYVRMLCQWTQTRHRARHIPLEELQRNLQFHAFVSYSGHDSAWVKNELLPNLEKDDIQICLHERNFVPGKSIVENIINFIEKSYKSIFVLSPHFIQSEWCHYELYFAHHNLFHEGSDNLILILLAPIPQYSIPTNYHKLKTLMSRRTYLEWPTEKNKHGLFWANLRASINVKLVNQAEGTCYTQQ
TLR1/TLR2 (Mus musculus, UniProt Q9EPQ1+Q9QUN7), sequence (Q9QUN7 25-784): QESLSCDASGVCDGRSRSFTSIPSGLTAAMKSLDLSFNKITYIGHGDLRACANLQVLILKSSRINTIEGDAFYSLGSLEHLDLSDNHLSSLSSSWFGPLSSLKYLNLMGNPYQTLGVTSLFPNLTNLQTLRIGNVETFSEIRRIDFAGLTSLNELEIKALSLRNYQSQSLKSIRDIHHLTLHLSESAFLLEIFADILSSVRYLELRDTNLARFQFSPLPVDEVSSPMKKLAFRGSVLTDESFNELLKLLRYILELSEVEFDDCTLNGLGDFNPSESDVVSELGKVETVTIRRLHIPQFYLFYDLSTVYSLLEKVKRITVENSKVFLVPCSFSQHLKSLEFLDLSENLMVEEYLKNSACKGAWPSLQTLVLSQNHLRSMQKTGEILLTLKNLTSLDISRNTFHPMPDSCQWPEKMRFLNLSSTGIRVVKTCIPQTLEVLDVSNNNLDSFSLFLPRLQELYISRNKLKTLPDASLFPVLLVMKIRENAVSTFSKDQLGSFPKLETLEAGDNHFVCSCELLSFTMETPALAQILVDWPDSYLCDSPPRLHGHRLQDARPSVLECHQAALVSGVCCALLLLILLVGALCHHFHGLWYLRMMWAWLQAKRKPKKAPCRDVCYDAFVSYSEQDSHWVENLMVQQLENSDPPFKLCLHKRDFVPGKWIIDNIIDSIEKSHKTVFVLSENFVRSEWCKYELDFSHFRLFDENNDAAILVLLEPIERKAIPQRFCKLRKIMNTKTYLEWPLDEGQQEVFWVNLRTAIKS
Experimental: Thioglycolate-elicited macrophages were recovered 4 days after i.p. injection of 2 mL BBL thioglycolate medium, brewer modified (4%; BD Biosciences) by peritoneal lavage with 5 mL phosphate buffered saline (PBS). […] Cells were seeded onto 96-well plates at 1×10^3 cells per well and treated with systematically varied concentrations of the candidate compounds (dissolved in DMSO, and final assay DMSO concentrations (0.5%) were kept constant in all experiments) for 4 h. Ultra-pure LPS (dissolved in H2O, Enzo Life Sciences) was assessed alongside the compounds as a positive control and DMSO treated controls. […] Mouse TNF-α in the supernatants was measured by ELISA kits according to the manufacturer's instructions (eBioscience). EC50's were calculated by Graphpad Prism. All data is mean of duplicates and SD is within ±10% of mean. Mouse cells were from wild type C57BL/6J mice.

TLR1/TLR2 [2] = target: TLR1/TLR2 (Homo sapiens, UniProt O60603+Q15399); assay: TNF-α release from PMA-differentiated human THP-1 cells (ELISA); details: for Emax: THP-1, 4 h, read-out: Efficacy (magnitude) of response versus diprovocim-1 (100%), THP-1; for EC50: read-out: EC50 (nM) (THP-1): EC50 TNF-α release from human THP-1 cells;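 on all read-outs here: cells exposed to graded compound concentrations for 4 h, TNF-α quantified in supernatant, LPS as positive and DMSO as negative control, values are duplicate means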
TLR1/TLR2 (Homo sapiens, UniProt O60603+Q15399), sequence (Q15399 25-786): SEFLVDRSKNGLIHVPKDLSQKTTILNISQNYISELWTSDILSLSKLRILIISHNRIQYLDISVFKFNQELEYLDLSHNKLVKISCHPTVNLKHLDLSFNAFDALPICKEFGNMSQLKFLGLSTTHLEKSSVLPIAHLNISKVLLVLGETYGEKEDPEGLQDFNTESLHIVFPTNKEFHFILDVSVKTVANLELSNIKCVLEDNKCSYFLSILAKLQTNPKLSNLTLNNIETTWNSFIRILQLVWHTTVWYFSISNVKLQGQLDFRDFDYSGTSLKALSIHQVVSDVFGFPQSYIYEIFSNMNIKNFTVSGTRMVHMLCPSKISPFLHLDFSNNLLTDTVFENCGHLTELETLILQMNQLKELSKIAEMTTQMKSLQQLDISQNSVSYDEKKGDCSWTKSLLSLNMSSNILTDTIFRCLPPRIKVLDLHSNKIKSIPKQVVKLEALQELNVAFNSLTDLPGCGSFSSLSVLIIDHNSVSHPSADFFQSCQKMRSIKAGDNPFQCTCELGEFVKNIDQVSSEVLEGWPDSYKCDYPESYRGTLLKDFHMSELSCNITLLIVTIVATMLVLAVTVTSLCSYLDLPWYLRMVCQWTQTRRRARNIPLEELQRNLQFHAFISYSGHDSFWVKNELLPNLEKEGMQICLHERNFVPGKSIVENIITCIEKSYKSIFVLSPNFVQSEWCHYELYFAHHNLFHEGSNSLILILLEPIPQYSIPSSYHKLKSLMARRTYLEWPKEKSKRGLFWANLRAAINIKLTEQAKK
TLR1/TLR2 (Homo sapiens, UniProt O60603+Q15399), sequence (O60603 21-784): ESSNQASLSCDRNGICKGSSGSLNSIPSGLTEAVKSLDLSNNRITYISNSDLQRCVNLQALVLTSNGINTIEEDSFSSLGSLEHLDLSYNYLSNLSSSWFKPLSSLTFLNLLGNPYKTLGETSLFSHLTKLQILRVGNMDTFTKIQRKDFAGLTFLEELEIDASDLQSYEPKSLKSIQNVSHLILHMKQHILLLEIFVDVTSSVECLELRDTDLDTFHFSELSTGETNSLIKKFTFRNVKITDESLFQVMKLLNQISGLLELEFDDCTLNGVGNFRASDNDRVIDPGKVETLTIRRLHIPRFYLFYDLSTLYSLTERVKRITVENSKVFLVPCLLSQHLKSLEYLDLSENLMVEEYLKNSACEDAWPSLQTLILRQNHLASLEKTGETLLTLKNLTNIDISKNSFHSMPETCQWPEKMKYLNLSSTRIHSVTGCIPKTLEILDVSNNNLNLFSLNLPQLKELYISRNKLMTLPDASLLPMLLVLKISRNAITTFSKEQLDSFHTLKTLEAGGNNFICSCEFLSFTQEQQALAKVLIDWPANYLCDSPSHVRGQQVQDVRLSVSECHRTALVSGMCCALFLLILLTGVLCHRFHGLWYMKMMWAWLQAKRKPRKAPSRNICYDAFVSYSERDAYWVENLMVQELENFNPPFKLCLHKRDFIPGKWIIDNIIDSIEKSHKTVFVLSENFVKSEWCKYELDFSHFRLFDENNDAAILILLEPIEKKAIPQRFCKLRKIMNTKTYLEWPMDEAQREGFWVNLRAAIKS

CC(C)(C)OC(=O)NC1(C(=O)OCCCCCCCCCCCCNC(=O)[C@@H]2CN(C(=O)c3ccc(C(=O)N4C[C@@H](C(=O)N[C@H]5C[C@@H]5c5ccccc5)[C@H](C(=O)N[C@H]5C[C@@H]5c5ccccc5)C4)cc3)C[C@H]2C(=O)N[C@H]2C[C@@H]2c2ccccc2)CC1 [Compound 62, 12-((3S,4S)-1-(4-((3S,4S)-3,4-Bis(((1S,2R)-2-phenylcyclopropyl)carbamoyl)pyrrolidine-1-carbonyl)-benzoyl)-4-(((1S,2R)-2-phenylcyclopropyl)carbamoyl)-pyrrolidine-3-carboxamido)-dodecyl 1-((tert-butoxy-carbonyl)amino)cyclopropanecarboxylate]
Emax (TLR1/TLR2 [1]): 220% | EC50 (TLR1/TLR2 [1]; Table 5): 10 nM | Emax (TLR1/TLR2 [2]): 100% | EC50 (TLR1/TLR2 [2]; Table 5): 5 nM

CC(C)(C)OC(=O)N[C@@H](Cc1ccccc1)C(=O)OCCCCCCCCCCCCNC(=O)[C@@H]1CN(C(=O)c2ccc(C(=O)N3C[C@@H](C(=O)N[C@H]4C[C@@H]4c4ccccc4)[C@H](C(=O)N[C@H]4C[C@@H]4c4ccccc4)C3)cc2)C[C@H]1C(=O)N[C@H]1C[C@@H]1c1ccccc1 [Compound 63, (S)-12-((3S,4S)-1-(4-((3S,4S)-3,4-Bis(((1S,2R)-2-phenylcyclopropyl)carbamoyl)pyrrolidine-1-carbonyl)-benzoyl)-4-(((1S,2R)-2-phenylcyclopropyl)carbamoyl)-pyrrolidine-3-carboxamido)-dodecyl 2-((tert-butoxy-carbonyl)amino)-3-phenylpropanoate]
Emax (TLR1/TLR2 [1]): 220% | EC50 (TLR1/TLR2 [1]; Table 5): 40 nM | Emax (TLR1/TLR2 [2]): 100% | EC50 (TLR1/TLR2 [2]; Table 5): 40 nM

CC(C)(C)OC(=O)N[C@@H](COCc1ccccc1)C(=O)OCCCCCCCCCCCCNC(=O)[C@@H]1CN(C(=O)c2ccc(C(=O)N3C[C@@H](C(=O)N[C@H]4C[C@@H]4c4ccccc4)[C@H](C(=O)N[C@H]4C[C@@H]4c4ccccc4)C3)cc2)C[C@H]1C(=O)N[C@H]1C[C@@H]1c1ccccc1 [Compound 64, (S)-12-((3S,4S)-1-(4-((3S,4S)-3,4-Bis(((1S,2R)-2-phenylcyclopropyl)carbamoyl)pyrrolidine-1-carbonyl)-benzoyl)-4-(((1S,2R)-2-phenylcyclopropyl)carbamoyl)-pyrrolidine-3-carboxamido)dodecyl 3-(benzyloxy)-2-((tert-butoxycarbonyl)amino)propanoate]
Emax (TLR1/TLR2 [1]): 370% | EC50 (TLR1/TLR2 [1]; Table 5): 30 nM | Emax (TLR1/TLR2 [2]): 100% | EC50 (TLR1/TLR2 [2]; Table 5): 0.15 nM

CC(C)(C)OC(=O)N[C@@H](CSCc1ccccc1)C(=O)OCCCCCCCCCCCCNC(=O)[C@@H]1CN(C(=O)c2ccc(C(=O)N3C[C@@H](C(=O)N[C@H]4C[C@@H]4c4ccccc4)[C@H](C(=O)N[C@H]4C[C@@H]4c4ccccc4)C3)cc2)C[C@H]1C(=O)N[C@H]1C[C@@H]1c1ccccc1 [Compound 65, (R)-12-((3S,4S)-1-(4-((3S,4S)-3,4-Bis(((1S,2R)-2-phenylcyclopropyl)carbamoyl)pyrrolidine-1-carbonyl)-benzoyl)-4-(((1S,2R)-2-phenylcyclopropyl)carbamoyl)-pyrrolidine-3-carboxamido)dodecyl 3-(benzylthio)-2-((tert-butoxycarbonyl)amino)propanoate]
Emax (TLR1/TLR2 [1]): 200% | EC50 (TLR1/TLR2 [1]; Table 5): 360 nM | Emax (TLR1/TLR2 [2]): 100% | EC50 (TLR1/TLR2 [2]; Table 5): 18 nM

CC(C)(C)OC(=O)N[C@@H](CCC(=O)OCc1ccccc1)C(=O)OCCCCCCCCCCCCNC(=O)[C@@H]1CN(C(=O)c2ccc(C(=O)N3C[C@@H](C(=O)N[C@H]4C[C@@H]4c4ccccc4)[C@H](C(=O)N[C@H]4C[C@@H]4c4ccccc4)C3)cc2)C[C@H]1C(=O)N[C@H]1C[C@@H]1c1ccccc1 [Compound 66, (S)-5-Benzyl 1-(12-((3S,4S)-1-(4-((3S,4S)-3,4-bis-(((1S,2R)-2-phenylcyclopropyl)carbamoyl)-pyrrolidine-1-carbonyl)-benzoyl)-4-(((1S,2R)-2-phenylcyclopropyl)-carbamoyl)pyrrolidine-3-carboxamido)dodecyl) 2-((tert-butoxycarbonyl)-amino)pentanedioate]
Emax (TLR1/TLR2 [1]): 210% | EC50 (TLR1/TLR2 [1]; Table 5): 450 nM | Emax (TLR1/TLR2 [2]): 100% | EC50 (TLR1/TLR2 [2]; Table 5): 39 nM

CSCC[C@H](NC(=O)OC(C)(C)C)C(=O)OCCCCCCCCCCCCNC(=O)[C@@H]1CN(C(=O)c2ccc(C(=O)N3C[C@@H](C(=O)N[C@H]4C[C@@H]4c4ccccc4)[C@H](C(=O)N[C@H]4C[C@@H]4c4ccccc4)C3)cc2)C[C@H]1C(=O)N[C@H]1C[C@@H]1c1ccccc1 [Compound 67, (S)-12-((3S,4S)-1-(4-((3S,4S)-3,4-Bis(((1S,2R)-2-phenylcyclopropyl)carbamoyl)pyrrolidine-1-carbonyl)-benzoyl)-4-(((1S,2R)-2-phenylcyclopropyl)carbamoyl)-pyrrolidine-3-carboxamido)-dodecyl 2-((tert-butoxy-carbonyl)amino)-4-(methylthio)butanoate]
Emax (TLR1/TLR2 [1]): 150% | EC50 (TLR1/TLR2 [1]; Table 5): 44 nM | Emax (TLR1/TLR2 [2]): 100% | EC50 (TLR1/TLR2 [2]; Table 5): 2.8 nM

Cc1ccc(S(=O)(=O)n2cnc(C[C@H](NC(=O)OC(C)(C)C)C(=O)OCCCCCCCCCCCCNC(=O)[C@@H]3CN(C(=O)c4ccc(C(=O)N5C[C@@H](C(=O)N[C@H]6C[C@@H]6c6ccccc6)[C@H](C(=O)N[C@H]6C[C@@H]6c6ccccc6)C5)cc4)C[C@H]3C(=O)N[C@H]3C[C@@H]3c3ccccc3)c2)cc1 [Compound 68, (S)-12-((3S,4S)-1-(4-((3S,4S)-3,4-Bis(((1S,2R)-2-phenylcyclopropyl)carbamoyl)pyrrolidine-1-carbonyl)benzoyl)-4-(((1S,2R)-2-phenylcyclopropyl)carbamoyl)pyrrolidine-3-carboxamido)-dodecyl 2-((tert-butoxy-carbonyl)amino)-3-(1-tosyl-1H-imidazol-4-yl)propanoate]
Emax (TLR1/TLR2 [1]): 110% | EC50 (TLR1/TLR2 [1]; Table 5): 35 nM | Emax (TLR1/TLR2 [2]): 90% | EC50 (TLR1/TLR2 [2]; Table 5): 17 nM

CC(C)(C)OC(=O)N[C@@H](CCCCNC(=O)OCC1c2ccccc2-c2ccccc21)C(=O)OCCCCCCCCCCCCNC(=O)[C@@H]1CN(C(=O)c2ccc(C(=O)N3C[C@@H](C(=O)N[C@H]4C[C@@H]4c4ccccc4)[C@H](C(=O)N[C@H]4C[C@@H]4c4ccccc4)C3)cc2)C[C@H]1C(=O)N[C@H]1C[C@@H]1c1ccccc1 [Compound 69, (S)-12-((3S,4S)-1-(4-((3S,4S)-3,4-Bis(((1S,2R)-2-phenylcyclopropyl)carbamoyl)pyrrolidine-1-carbonyl)-benzoyl)-4-(((1S,2R)-2-phenylcyclopropyl)carbamoyl)-pyrrolidine-3-carboxamido)-dodecyl 6-((((9H-fluoren-9-yl)methoxy)-carbonyl)amino)-2-((tert-butoxy-carbonyl)amino)-hexanoate]
Emax (TLR1/TLR2 [1]): 200% | EC50 (TLR1/TLR2 [1]; Table 5): 1150 nM | Emax (TLR1/TLR2 [2]): 100% | EC50 (TLR1/TLR2 [2]; Table 5): 280 nM

CN(CC(=O)OCCCCCCCCCCCCNC(=O)[C@@H]1CN(C(=O)c2ccc(C(=O)N3C[C@@H](C(=O)N[C@H]4C[C@@H]4c4ccccc4)[C@H](C(=O)N[C@H]4C[C@@H]4c4ccccc4)C3)cc2)C[C@H]1C(=O)N[C@H]1C[C@@H]1c1ccccc1)C(=O)OC(C)(C)C [Compound 70, 12-((3S,4S)-1-(4-((3S,4S)-3,4-Bis(((1S,2R)-2-phenyl-cyclopropyl)carbamoyl)pyrrolidine-1-carbonyl)-benzoyl)-4-(((1S,2R)-2-phenylcyclopropyl)carbamoyl)-pyrrolidine-3-carboxamido)-dodecyl 2-((tert-butoxycarbonyl)(methyl)amino)acetate]
Emax (TLR1/TLR2 [1]): 110% | EC50 (TLR1/TLR2 [1]; Table 5): 17 nM | Emax (TLR1/TLR2 [2]): 100% | EC50 (TLR1/TLR2 [2]; Table 5): 1.7 nM

CC(C)(C)OC(=O)NNC(=O)OCCCCCCCCCCCCNC(=O)[C@@H]1CN(C(=O)c2ccc(C(=O)N3C[C@@H](C(=O)N[C@H]4C[C@@H]4c4ccccc4)[C@H](C(=O)N[C@H]4C[C@@H]4c4ccccc4)C3)cc2)C[C@H]1C(=O)N[C@H]1C[C@@H]1c1ccccc1 [Compound 71, 1-(12-((3S,4S)-1-(4-((3S,4S)-3,4-Bis(((1S,2R)-2-phenylcyclopropyl)carbamoyl)pyrrolidine-1-carbonyl)-benzoyl)-4-(((1S,2R)-2-phenylcyclopropyl)carbamoyl)-pyrrolidine-3-carboxamido)-dodecyl) 2-tert-butyl hydrazine-1,2-dicarboxylate]
Emax (TLR1/TLR2 [1]): 220% | EC50 (TLR1/TLR2 [1]; Table 5): 25 nM | Emax (TLR1/TLR2 [2]): 100% | EC50 (TLR1/TLR2 [2]; Table 5): 5 nM

CC(C)(C)OC(=O)NCC(=O)NCC(=O)OCCCCCCCCCCCCNC(=O)[C@@H]1CN(C(=O)c2ccc(C(=O)N3C[C@@H](C(=O)N[C@H]4C[C@@H]4c4ccccc4)[C@H](C(=O)N[C@H]4C[C@@H]4c4ccccc4)C3)cc2)C[C@H]1C(=O)N[C@H]1C[C@@H]1c1ccccc1 [Compound 72, 12-((3S,4S)-1-(4-((3S,4S)-3,4-Bis(((1S,2R)-2-phenyl-cyclopropyl)carbamoyl)pyrrolidine-1-carbonyl)benzoyl)-4-(((1S,2R)-2-phenylcyclopropyl)carbamoyl)pyrrolidine-3-carboxamido)-dodecyl 2-(2-((tert-butoxycarbonyl)amino)acetamido)acetate]
Emax (TLR1/TLR2 [1]): 110% | EC50 (TLR1/TLR2 [1]; Table 5): 2.5 nM | Emax (TLR1/TLR2 [2]): 110% | EC50 (TLR1/TLR2 [2]; Table 5): 0.52 nM

CC(C)(C)OC(=O)Nc1ccc(C(=O)OCCCCCCCCCCCCNC(=O)[C@@H]2CN(C(=O)c3ccc(C(=O)N4C[C@@H](C(=O)N[C@H]5C[C@@H]5c5ccccc5)[C@H](C(=O)N[C@H]5C[C@@H]5c5ccccc5)C4)cc3)C[C@H]2C(=O)N[C@H]2C[C@@H]2c2ccccc2)cc1 [Compound 73, 12-((3S,4S)-1-(4-((3S,4S)-3,4-Bis(((1S,2R)-2-phenyl-cyclopropyl)carbamoyl)pyrrolidine-1-carbonyl)-benzoyl)-4-(((1S,2R)-2-phenylcyclopropyl)carbamoyl)-pyrrolidine-3-carboxamido)-dodecyl 4-((tert-butoxycarbonyl)amino)benzoate]
Emax (TLR1/TLR2 [1]): 540% | EC50 (TLR1/TLR2 [1]; Table 6): 30 nM | Emax (TLR1/TLR2 [2]): 90% | EC50 (TLR1/TLR2 [2]; Table 6): 0.57 nM
